According to patent publication US10758536B2, “Method for treating shingles with N-methanocarbathymidine (N-MCT)” (priority 2015, dated 2020):

Assays:
VZV [1] = assay: SCID-Hu mouse model of VZV replication, oral dose range; assay type: in vivo, varicella-zoster virus; settings: all doses, N-MCT 5-100 mg/kg/day BID; p<0.0001, ANOVA and Dunnett
Procedure: SCID-hu mice with human skin xenografts were infected intradermally with VZV and treated orally twice daily with vehicle, PFA (positive control), or N-MCT at 5, 10, 20, 25, 50, or 100 mg/kg/day. Virus spread was measured daily by in vivo bioluminescence imaging (IVIS). […] The results were analyzed for statistical significance by ANOVA and Dunnett's post hoc test of multiple comparisons (GraphPad Prism).

VZV [2] = assay: Skin organ culture topical Assay 1: dose dependence (carbopol gel); assay type: cell-based, varicella-zoster virus
Procedure: (§1) Place 36 mL deionized sterile water into small beaker with stir bar. Slowly waft 900 mg of carbopol (980 NF, Lot # CCONLCC013, Lubrizol Corp) into water, avoiding clumps. Add equal volume N-MCT in 20% hydroxypropyl-β-cyclodextrin (Sigma) at 2× to reach the desired concentration. Add 2 drops NaOH (18% solution) to attain a pH near 5.0. Store at 4° C. The 0.5% cidofovir gel was made in a similar manner except that cidofovir was dissolved in water. The DMSO vehicle was prepared by adding a 2% DMSO solution in water to the carbopol suspension at a 1:1 ratio. Hydroxypropyl-β-cyclodextrin (HPBCD) was prepared by mixing 5.0 g with 20 mL sterile water. Stock solution of N-MCT was prepared by dissolving 90 mg N-MCT in 9 mL 20% HPBCD and sonicating for 1 min.
A skin organ culture model was used to evaluate N-MCT as a topical treatment for VZV. Human skin explants were inoculated with VZV by scarification and treated daily from 1-4 days post infection with N-MCT (0.05, 0.5, or 5%) or cidofovir (0.5%, positive control) in a carbopol gel.
(§2) Human fetal skin was purchased from ABR and delivered by overnight courier on wet ice. The tissue was cleaned, disinfected in betadine and 70% ethanol, then cut into pieces approximately 1-cm^2. Each piece was inoculated with VZV-BAC-Luc strain that expresses firefly luciferase. Approximately 3 hours after inoculation, the pieces of skin were placed in NetWells above tissue culture medium and incubated overnight. The next day (Day 1) each piece of skin was soaked in D-luciferin for 45 min, and then scanned in the IVIS-50 instrument to measure Total Flux, which is a correlate of VZV pfu. The drug treatment began on Day 1 or later by spreading an aqueous gel (carbopol) containing N-MCT at concentrations of 0.05, 0.5, or 5% (see Assay 1 in Table 4 below). One group of skin was treated with cidofovir ([…] in carbopol gel) for a positive control. Each group contained 4-6 pieces of skin. The drug was applied daily until Day 5 (or other intervals), and then the skin pieces were scanned by IVIS to determine virus yield. […] The results were analyzed for statistical significance by ANOVA and Dunnett's post hoc test of multiple comparisons (GraphPad Prism).

VZV [3] = assay: Skin organ culture topical Assay 2: delayed treatment; assay type: cell-based, varicella-zoster virus
Procedure: as §1, §2
This assay differs from Assay 1 in that the Vehicle was prepared with 10% HPBCD, which is the solvent for the N-MCT. Refer to Assay #2 in Table 4 above. Three groups were treated on Days 1-4 and scanned on Day 5, which is the typical assay protocol. Two groups were treated after a delay of several days, which more closely reflects a clinical scenario of zoster. All treated groups received the same preparation of 0.5% N-MCT in carbopol with 10% HPBCD. VZV yield was reduced in the Vehicle group during the treatment phase, and then rebounded. This was likely due to the effects of HPBCD, which has known antiviral properties. […] In contrast, VZV yield increased until Day 5 in the group that received no treatment until after this scan. The difference between this group and the Vehicle group was notable, since they were expected to be similar.

Compound: O=C(O)P(=O)(O)O [PFA, phosphonoformic acid, reference compound]
- VZV yield and growth rates compared to vehicle (VZV [1]): significantly reduced

Compound: Nc1ccn(C[C@@H](CO)OCP(=O)(O)O)c(=O)n1 [cidofovir, reference compound]
- VZV yield compared to vehicle (VZV [2]; N-MCT 0.05, 0.5, 5% or cidofovir in carbopol gel, daily, p<0.0004): significantly reduced
- VZV replication in skin explants, topical gel (VZV [2]; N-MCT 0.05-5%, cidofovir 0.5% in carbopol gel): prevented VZV replication
- reduction of virus yield compared to the vehicle group (VZV [2]; all concentrations, topical carbopol gel, p=0.0004): approximately 100 fold
- VZV yield, treatment on Days 1-4 (VZV [3]; 0.5% in carbopol QD 1-4 dpi, during and after treatment): dramatically reduced

Compound: CC(O)COC[C@H]1O[C@@H]2O[C@H]3[C@H](O)[C@@H](O)[C@@H](O[C@H]4[C@H](O)[C@@H](O)[C@@H](O[C@H]5[C@H](O)[C@@H](O)[C@@H](O[C@H]6[C@H](O)[C@@H](O)[C@@H](O[C@H]7[C@H](O)[C@@H](O)[C@@H](O[C@H]8[C@H](O)[C@@H](O)[C@@H](O[C@H]1[C@H](O)[C@H]2O)O[C@@H]8COCC(C)O)O[C@@H]7COCC(C)O)O[C@@H]6COCC(C)O)O[C@@H]5COCC(C)O)O[C@@H]4COCC(C)O)O[C@@H]3COCC(C)O (stereo partly drawn) [hydroxypropyl-β-cyclodextrin]
- antiviral effect on VZV in skin organ culture (VZV [3]; 10% in carbopol, no drug): moderate antiviral effect
